The subject of this assay is TNF production in CD14^+ monocytes. In words: TNF ELISA, R848-stimulated purified CD14^+ monocytes. The class given is cell-based, human. The note with it: purified CD14^+ cells, dTASL1 10 µM 24 h, R848 (5 μg/ml) 16 h, n=8. The source says:
HEK293T cells and THP1 cells were purchased from ATCC, THP1 DUAL/ISRE reporter cell lines from Invivogen. CAL-1 cells were provided by T. Maeda (Nagasaki University). Cell lines—except for CAL-1—were authenticated by short tandem repeat profiling and regularly tested for mycoplasma contamination. Human primary PBMCs were isolated from the blood of anonymous healthy donors as well as SLE patients included in our biobank approved by the ethics committee of the Medical University of Vienna (EK2071/2020 and EK1075/2021). CD14^+ monocytes were purified by magnetic-activated cell sorting (Miltenyi Biotec, #130-050-201) according to the manufacturers protocol. Purity of CD14^+ cells ranged between 80.8% and 94.2% as determined by flow cytometry analysis. […]
Given that all evidence obtained seems to confirm the mechanistic precision of this chemical agent, any further consideration of assessing the therapeutic potential required evidence for activity in human primary cells relevant for SLE pathophysiology. The effect of dTASL1 in human peripheral blood mononuclear cells (PBMCs) was assessed. […] The impact of dTASL1 on TLR7/8 responses by directly monitoring IRF5 by confocal microscopy in B cells was assessed.

This note sets out measurements from US20260364088A1, “TASL MIMICKING MOLECULES AND APPLICATIONS THEREOF” (CEMM - FORSCHUNGSZENTRUM FÜR MOLEKULARE MEDIZIN GMBH, priority 2022, published 2026).

Take `CCOc1ccc(-c2cc(C(=O)NCCCN3CCCCC3C)c3ccccc3n2)cc1` (stereo not shown) [dTASL1, 2-(4-ethoxyphenyl)-N-(3-(2-methylpiperidin-1-yl)propyl) quinoline-4-carboxamide]: the TNF production entry is listed as “a significant reduction in this proinflammatory cytokine”.
